The target of assay [1] is T1, phospholipase A2 (pig pancreas phospholipase preparation) (Sus scrofa, UniProt P00592).
T1 construct: pig pancreas phospholipase preparation from Sigma; purchased Sigma; host or cells: pig pancreas (tissue-derived preparation)
Put plainly: Inhibition of PLA2 induced contractions in rat stomach strip. The settings on record: peptide 20 μg/ml, 30 min; PLA2 4.4 μg/ml; mean of four samples. On the procedure:
The rat stomach bottom strip was prepared as originally described by Vane (Br. J. Pharmacol., 12: 344-349, 1957) and suspended in a small bath for resected organs, thermostated at 37° in Krebs solution. After two hours stabilisation in said bath, the stomach reacts to phospholipase A2 stimulation (pig pancreas phospholipase preparation from Sigma) by contracting. These contractions are recorded by means of an isotonic transductor on recorder (Firm Basile). The contracting effect of the PLA2 is concentration-dependent and a concentration of 4.4 μg/ml was used in the experiments with the peptide 204-212. The experiments were carried out as follows:
a) estimation of the stomach contracting effect by the PLA2 at the final concentration of 4.4 μg/ml (control value)
b) after thoroughly washing the strip, peptide (I) was added at the concentration of 20 μg/ml and the effect of the PLA2 was estimated again after 30 min (sample).

Assay [2] relates to carrageenin induced oedema in rat paw. Put plainly: Inhibition of carrageenin induced oedema in rat paw. The class given is in vivo. The settings on record: for Oedema 3 hours Inhibition %: 3 hours after carrageenin; for Oedema 4 hours Inhibition %: 4 hours after carrageenin. As to the method: The carrageenin induced oedema in the rat paw was generated as disclosed by Parente et al. (Eur. J. Pharmacol., 99: 233-239, (1984). Practically 0.1 ml physiological solution comprising 1% (w/v) lambda carrageenin (Sigma) were injected subcutaneously into the right back paw of male Wistar rats weighing 200 g pretreated as follows: 5 rats (control) were locally inoculated with 100 μl sterile physiological solution; 5 rats were locally injected with 100 μl physiological solution comprising […] (respectively corresponding to a dose of 2 and 0.5 mg/Kg) synthetic peptide 204-212. The oedema was measured with a water plethysmometer 3 and 4 hours after the carrageenin injection. The results in Table 5 show an inhibition of the oedema due to the peptide 204-212 and moreover that the extent of the inhibition is dose-dependent.

The next assay relates to human fibroblasts. The settings on record: for Inhibition %: PGE2 release, bradykinin 1 μM.
Assay [3] deals with rat peritoneal leukocytes. Put plainly: Inhibition of zymosan-stimulated prostaglandin E2 release in rat peritoneal leukocytes (radioimmunoassay). The settings on record: peptide 100 μg/ml. It counts as cell-based. On the procedure:
Rat peritoneal leukocytes were collected and purified as described by Parente and Flower (supra), then suspended in Krebs solution oxygenated with Carbogen at a final concentration of 1.10^6 cells/ml. Samples (1 ml) of said suspension were incubated in a thermostatic bath at 37° C. for 30 min in the presence (100 μg/ml) and in the absence (control) of the synthetic peptide 204-212. The incubation was maintained for a further 60 min at 37° C. after addition to each culture of 200 μg/ml Zymosan (activated by opsonization, i.e. incubated with mouse serum for 30 min at 37° C.). At the end of this time the cells were separated from the suspension by centrifugation at 10,000 rpm for 5 min using an Eppendorf centrifuge model 5414. The supernatants thus recovered were analysed by radioimmunoassay to monitor the prostaglandin E2 (PGE2) levels.

Assay [4] deals with PLA2 induced oedema in rat paw. Put plainly: Inhibition of PLA2 induced oedema in rat paw. It counts as in vivo. The settings on record: 2 mg/Kg (400 μg) co-injected with 5 μg PLA2 into paw, mean of five. As to the method: The oedema induced by PLA2 in the rat paw was generated according to the modified technique of Marshall et al. (J. Cell Biochem. suppl. 12 E: S325, 1985). Practically, the enzyme phospholipase A2 (Naja Mocambique), with a specific activity of about 400 units/mg protein, was dissolved into a physiological solution comprising calcium chloride 1 mM to a final concentration of 100 μg/ml. Thereafter samples (0.5 ml) of said solution were diluted 1:1 (v/v) either with a physiological solution as such, or with a physiological solution comprising the synthetic peptide 204-212 at a concentration of 8 mg/ml. The thus obtained solutions were incubated at 37° C. for 15 min. At the end of this incubation period, 0.1 ml of the solutions either comprising 5 μg of PLA2 only, or additionally 400 μg of the synthetic peptide, were injected into the right back paw of male Wistar rats of 200 g weight (thus the synthetic peptide 204- 212 was given at a 2 mg/Kg dose). The oedema in the paw was measured by means of a water plesthysomometer 30 and 60 min after the injection. The results reported in Table 4 confirm the in vivo PLA2 inhibiting effect of the peptide 204-212.

Results on 1 compound are retold here after patent US5229367A, “Antiinflammatory peptide derived from human lipocortin V” (Sclavo S.p.A., priority 1991, dated 1993).

In brackets after ≈: the same amount, converted by molar mass. Like-named read-outs stand apart in the source and are kept apart here. Peptide text beside a SMILES is read from it.

T1 sequence (P00592 23-146): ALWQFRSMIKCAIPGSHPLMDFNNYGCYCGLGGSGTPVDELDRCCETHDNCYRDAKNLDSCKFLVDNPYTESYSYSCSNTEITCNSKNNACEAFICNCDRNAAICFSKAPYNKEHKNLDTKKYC
Procedure for human fibroblasts: Thereafter 0.2 ml of said suspension were placed into each well of a 96 flat bottomed well Cluster dish (firm Costar) and incubated at 37° C. for 72 hours. At the end of said period the cells were washed three times with 0.2 ml medium without serum and then incubated for 60 min at 37° C. as follows:
one part in 0.2 ml DMEM medium without bovine foetal serum (control);
Bradykinin (Sigma) was added thereafter to the final concentration of 1 μM to all the samples, and the incubation was maintained for a further 30 min. Finally the determination of PGE2 in the cell-free supernatants was carried out by making use of a radioimmunoassay.

As to `CC(C)C[C@H](NC(=O)[C@H](Cc1c[nH]cn1)NC(=O)[C@@H](N)CO)C(=O)N[C@@H](CCCNC(=N)N)C(=O)N[C@@H](CCCCN)C(=O)N[C@H](C(=O)N[C@@H](Cc1ccccc1)C(=O)N[C@@H](CC(=O)O)C(=O)N[C@@H](CCCCN)C(=O)O)C(C)C` [Peptide 204-212, H-Ser-His-Leu-Arg-Lys-Val-Phe-Asp-Lys-X] (H-SHLRKVFDK-OH), in assay [1], the inhibition at 20 µg/mL is 60.5%. The “Oedema 3 hours Inhibition %” value in assay [2] (0.5 mg/Kg local injection) came to 22.7 ± 8.3%; in assay [2] (2.0 mg/Kg local injection) it was 37.0 ± 3.3%. Also, the “Oedema 4 hours Inhibition %” value in assay [2] (0.5 mg/Kg local injection) is on record as 13.7 ± 5.1%; in assay [2] (2.0 mg/Kg local injection), 37.5 ± 10.1%. In the assay with human fibroblasts, the “ED 50” value was determined as 1.13 µg/mL (≈ 1 µM). The Inhibition % in the assay on human fibroblasts (1 ng/ml) stood at 0%; in the assay on human fibroblasts (10 ng/ml), 16 ± 2%; in the assay with human fibroblasts (100 ng/ml), 41 ± 7%; in the assay with human fibroblasts (1 μg/ml), 43 ± 4%; in the assay on human fibroblasts (10 μg/ml) it was 63 ± 7%; with human fibroblasts (100 μg/ml), 94 ± 6%. In assay [3] (PGE2 release), the Inhibition % came out at 49.8%. The PGE2 in assay [3] (200 μg/ml opsonized Zymosan, supernatant PGE2 level, mean of three samples plus standard error, control 253.7 + 22.8) was 129.0 + 16.9. The “Oedema 30 min” value in assay [4] (30 min after injection) turned out to be 25.4 ± 7.7. In assay [4] (60 min after injection), the “Oedema 60 min” value is 25.4 ± 7.8.

In general, inhibition refers to the percentage by which the read-out fell short of the control. Low values mean little suppression, high ones strong suppression.
